From patent US4927842A, “2,3,4,9-tetrahydro-1H-carbazole acetic acid derivatives, composition and use as anti-inflammatories” (American Home Products Corporation, priority 1989, dated 1990)

Tested on: rats
Assay: Preventative Adjuvant Edema (acute anti-inflammatory effect in rats)
Format: in vivo, Male Sprague Dawley rats
Conditions: 25 mg/kg, p.o.; given immediately before, 24 and 48 hours after Freund's complete adjuvant; hind paw edema volume day 0 to day 3
Description: This test is a primary screen for anti-inflammatory drugs.
Male Sprague Dawley rats (180-200 g) are used. The animals have free access to water but food is withdrawn 18 hours before testing.
Freund's complete adjuvant is prepared by suspending 5 mg killed and dried Mycobacterium butyricum (Difco) in 1 mL mineral oil. The test compounds are dissolved in distilled water or suspended in 0.5% Tween 80 in distilled water according to their solubility. For primary screening all drugs are administered by gastric lavage at the arbitrary dosage of 25 mg/kg, p.o. in a volume of 0.5 mL/100 g body weight to groups of 10 animals.
The method is essentially that described by Wax et al, J. Pharmacol. Exp. Ther., 192, 166-171 (1975). Groups of rats are injected intradermally in the left hand paw with 0.1 mL of Freund's complete adjuvant. The test compound or vehicle is administered immediately before the adjuvant, 24 hours and 48 hours after the adjuvant (day 0, 1 and 2). The injected hind paw volume is measured before the injection of adjuvant and 24 hours after the last drug administration (day 3) by means of a plethysmometer (Buxco Electronics Inc.). The difference between the hind paw volume on day 0 and day 3 represents the edema volume. Etodolac (25 mg/kg, p.o.) is included as a positive control.
The mean edema volume (expressed as mL±SEM) is calculated for each group and the percentage protection conferred by the drug is calculated: [formula] where c is the mean edema volume for the untreated controls and t is the mean edema volume for the drug treated group.

Compound	% Inhibition
CC[C@]1(CC(=O)O)CC[C@@H](CC=NOC)c2c1[nH]c1c(C)cccc21 (relative stereo) [Example 2, cis-1-Ethyl-2,3,4,9-tetrahydro-4-[2-(methoxyimino)ethyl]-8-methyl-1H-carbazole-1-acetic Acid]	45%
cis-1-Ethyl-2,3,4,9-tetrahydro-4-[2-(hydroxyimino)ethyl]-8-methyl-1H-carbazole-1-acetic Acid [Example 1]	59%
CC[C@]1(CC(=O)O)CC[C@@H](CC(C)=O)c2c1[nH]c1c(C)cccc21 (relative stereo) [Example 3, cis-1-Ethyl-2,3,4,9-tetrahydro-8-methyl-4-(2-oxopropyl)-1H-carbazole-1-acetic Acid]	52%
CC[C@]1(CC(=O)O)CC[C@@H](CC#N)c2c1[nH]c1c(C)cccc21 (relative stereo) [Example 4, cis-4-(Cyanomethyl)-1-ethyl-2,3,4,9-tetrahydro-8-methyl-1H-carbazole-1-acetic Acid]	52%
